Assay in all cases: microbe, parasite or virus in culture
Experiment [1] concerns E. coli 63103 (ESBL). The settings on record: Escherichia coli. The procedure: (§1) The MICs of test agents were measured using a modified broth micro-dilution method in Difco Mueller Hinton medium, on a panel of bacterial pathogens that were both susceptible and resistant to common antibiotics (S1 File). Briefly, serial dilutions were performed in 0.01% acetic acid containing 0.2% bovine serum albumin at 10-fold the desired final concentration. Ten μL of the 10-fold concentrated test reagents were added to each well of a 96-well polypropylene microtitre plate containing 90 μL of Mueller Hinton media per well. Bacteria were added to the plate from an overnight culture at a final concentration of 2–7 x 10^5 CFU/mL and incubated overnight at 37°C. The MIC is defined as the concentration at which no growth was observed.
(§2) Screening of peptoid antimicrobial activity against a panel of multidrug resistant superbugs was done according to the protocol described in the manuscript. The bacterial strains used in this panel included; P. aeruginosa PAO1 strain H103 [1], P. maltophilia ATCC#13637, S. aureus ATCC#25923 [1], E. faecalis ATCC#29212 [2], and E. cloacae 218R, constitutively expressing Class C chromosomal β-lactamase, were from the Hancock lab strains collection. An MRSA clinical isolate was kindly provided by Anthony Chow (Vancouver General Hospital, Vancouver, Canada). Two Klebsiella pneumoniae and two E. coli clinical isolates expressing extended spectrum β-lactamases (ESBL) were kindly provided by George Zhanel (Health Sciences Centre, Winnipeg, Canada). Vancomycin-resistant clinical isolates of Enterococcus faecalis and E. faecium were obtained from Ana M. Paccagnella (BC Centre for Disease Control, Vancouver, Canada). Three clinical isolates (#9, #198 and #213) of multi-drug resistant P. aeruginosa, were kindly provided by Carlos Kiffer (University of São Paulo, Brazil). […] Three P. aeruginosa clinical isolates of the Liverpool epidemic strain (LES) (H1027, H1030 and LES400) were all kindly provided by Craig Winstanley (University of Liverpool, UK). […] All tested bacterial strains were categorized as biohazard level 2 pathogens.

In experiment [2] the test system is K. pneumonia 63575 (ESBL). To be noted: Klebsiella pneumoniae. The procedure: as §1, §2
Experiment [3] relates to E. coli 64771 (ESBL). The settings on record: Escherichia coli. The procedure:
as §1, §2

In experiment [4] the test system is P. aeruginosa 213 (MDR). The settings on record: Pseudomonas aeruginosa. How it is done: as §1, §2
Experiment [5] has as its system P. aeruginosa H1030 (MDR). The settings on record: Pseudomonas aeruginosa. The procedure: as §1, §2
In experiment [6] the test system is P. aeruginosa LES400 (MDR). To be noted: Pseudomonas aeruginosa. The procedure: as §1, §2
The subject of experiment [7] is K. pneumonia 61962 (ESBL). The settings on record: Klebsiella pneumoniae. How it is done:
as §1, §2

For experiment [8], the system named is E. faecalis F43559 (VRE). To be noted: Enterococcus faecalis, VRE. The procedure: as §1, §2
In experiment [9] the test system is E. faecalis ATCC29212. To be noted: Enterococcus faecalis, ATCC29212. How it is done:
as §1, §2

In experiment [10] the test system is E. faecalis W61950 (VRE). To be noted: Enterococcus faecalis, VRE. How it is done: as §1, §2
For experiment [11], the system named is P. aeruginosa 9 (MDR). To be noted: Pseudomonas aeruginosa. How it is done:
as §1, §2

For experiment [12], the system named is S. aureus ATCC25923. The settings on record: Staphylococcus aureus, ATCC25923. The procedure: as §1, §2
Experiment [13] has as its system P. aeruginosa H103 (wild type). The settings on record: Pseudomonas aeruginosa. The procedure: as §1, §2
For experiment [14], the system named is E. faecium mic80 (VRE). The settings on record: Enterococcus faecium, VRE. How it is done: as §1, §2
Experiment [15] has as its system P. aeruginosa 198 (MDR). To be noted: Pseudomonas aeruginosa. The procedure: as §1, §2
The test system of experiment [16] is P. maltophilia ATCC13637. The settings on record: Stenotrophomonas maltophilia, ATCC13637. The procedure:
as §1, §2

Experiment [17] relates to P. aeruginosa H1027 (MDR). The settings on record: Pseudomonas aeruginosa. The procedure:
as §1, §2

Experiment [18] relates to E. faecium T62764 (VRE). To be noted: Enterococcus faecium, VRE. How it is done:
as §1, §2

In experiment [19] the test system is S. aureus C623 (MRSA). The settings on record: Staphylococcus aureus, MRSA. How it is done:
as §1, §2

The test system of experiment [20] is E. cloacae 218R Class C β-lactamase. To be noted: Enterobacter cloacae. The procedure:
as §1, §2

This is an account of results in PMC4744035, “In Vivo, In Vitro, and In Silico Characterization of Peptoids as Antimicrobial Agents” (PLoS ONE, 2016).

Structures are written as SMILES. ≈ marks a conversion by molar mass, not a printed value.

As to `O=C(O)c1cn(C2CC2)c2cc(N3CCNCC3)c(F)cc2c1=O` [Ciprofloxacin, reference compound], the MIC is more than 128 µg/mL in [1]; 64 µg/mL (≈ 193 µM) in [2]; more than 128 µg/mL in experiment [3]; 64 µg/mL (≈ 193 µM) in [4]; 0.3 µg/mL (≈ 0.905 µM) in experiment [5]; 0.5 µg/mL (≈ 1.51 µM) in experiment [6]. The MIC in experiment [7] is 0.1 µg/mL (≈ 0.302 µM); in experiment [8], 32 µg/mL (≈ 96.6 µM); in experiment [9] it was 0.3 µg/mL (≈ 0.905 µM); in experiment [10], 32 µg/mL (≈ 96.6 µM); in experiment [11], 128 µg/mL (≈ 386 µM); in experiment [12] it was 0.1 µg/mL (≈ 0.302 µM). Also, the MIC in experiment [13] amounted to 0.1 µg/mL (≈ 0.302 µM); in experiment [14], 32 µg/mL (≈ 96.6 µM); in experiment [15], 32 µg/mL (≈ 96.6 µM); in experiment [16] it was 0.3 µg/mL (≈ 0.905 µM); in [17], 1 µg/mL (≈ 3.02 µM); in experiment [18] it was 128 µg/mL (≈ 386 µM). In [19], this compound returned an MIC of 2 µg/mL (≈ 6.04 µM).

For the compound `C[C@@H](O)[C@H]1C(=O)N2C(C(=O)O)=C(SCCN=CN)C[C@H]12` [Imipenem, reference compound], the MIC is 0.1 µg/mL (≈ 0.334 µM) in experiment [1]; 0.1 µg/mL (≈ 0.334 µM) in experiment [2]; 0.1 µg/mL (≈ 0.334 µM) in [3]; 128 µg/mL (≈ 428 µM) in [4]; 0.1 µg/mL (≈ 0.334 µM) in [20]; 1 µg/mL (≈ 3.34 µM) in experiment [6]. Moreover, the MIC in experiment [7] was found to be 0.1 µg/mL (≈ 0.334 µM); in [8] it was 2 µg/mL (≈ 6.68 µM); in experiment [9], 0.5 µg/mL (≈ 1.67 µM); in experiment [10], 2 µg/mL (≈ 6.68 µM); in [11] it was 128 µg/mL (≈ 428 µM); in [12], 0.1 µg/mL (≈ 0.334 µM). Moreover, the MIC in experiment [13] was 2 µg/mL (≈ 6.68 µM); in experiment [14], 128 µg/mL (≈ 428 µM); in [15], 32 µg/mL (≈ 107 µM); in experiment [16], 128 µg/mL (≈ 428 µM); in experiment [17] it was 8 µg/mL (≈ 26.7 µM); in experiment [18], more than 128 µg/mL. Besides, the MIC in [19] came to 0.1 µg/mL (≈ 0.334 µM).

Take `NC[C@H]1O[C@H](O[C@H]2[C@H](O)[C@@H](O[C@H]3O[C@H](CO)[C@@H](O)[C@H](N)[C@H]3O)[C@H](N)C[C@@H]2N)[C@H](N)C[C@@H]1O` [Tobramycin, reference compound]: the MIC was 64 µg/mL (≈ 137 µM) in [1]; 16 µg/mL (≈ 34.2 µM) in experiment [2]; 128 µg/mL (≈ 274 µM) in experiment [3]; more than 128 µg/mL in experiment [4]; 8 µg/mL (≈ 17.1 µM) in experiment [5]; 0.5 µg/mL (≈ 1.07 µM) in [20]. Also, the MIC in [6] was 4 µg/mL (≈ 8.56 µM); in experiment [7], 32 µg/mL (≈ 68.4 µM); in experiment [8], 32 µg/mL (≈ 68.4 µM); in experiment [9] it was 16 µg/mL (≈ 34.2 µM); in experiment [10], more than 128 µg/mL; in experiment [11], more than 128 µg/mL. In addition, the MIC in experiment [12] is 0.3 µg/mL (≈ 0.642 µM); in [13], 0.5 µg/mL (≈ 1.07 µM); in experiment [14], 128 µg/mL (≈ 274 µM); in [15], more than 128 µg/mL; in experiment [16], 4 µg/mL (≈ 8.56 µM); in experiment [17], 32 µg/mL (≈ 68.4 µM). The MIC in [18] and in [19] was more than 128 µg/mL in each case.
